In brackets after ≈: the same amount, converted by molar mass.
Legend:
[1] = system: Pseudoperonospora cubensis; assay: whole plant or invertebrate; assay type: in vivo; conditions: Pseudoperonospora cubensis, in Cucumis sativus, 168 h; read-out: % control CDM
[2] = system: Piricularia oryzae; assay: whole plant or invertebrate; assay type: in vivo; conditions: Pyricularia oryzae, read-out: % control RB
[3] = system: Pellicularia filamentosa (f. sp. sasiki); assay: whole plant or invertebrate; assay type: in vivo; conditions: 120 h; read-out: % control RSB
[4] = system: Phytophthora infestans; assay: whole plant or invertebrate; assay type: in vivo; conditions: Phytophthora infestans, in Solanum lycopersicum, 96 h, read-out: % control TLB
[5] = system: Erysiphe graminis (f. sp. tritici); assay: whole plant or invertebrate; assay type: in vivo; conditions: Blumeria graminis; read-out: % control WPM
[6] = system: Puccinia recondita (f. sp. tritici Races PKB and PLD); assay: whole plant or invertebrate; assay type: in vivo; conditions: Puccinia recondita, 240 h; read-out: % control WLR
[7] = system: A.n; assay: Minimum Inhibitory Concentration Test, alternate (Table 4), A.n; assay type: cell-based, Aspergillus niger; conditions: Aspergillus niger, TSB, 72 hours
Method: (§1) A 125 μl aliquot of 10,000 ppm test compound in acetone was added to 4.88 ml of TSB to provide a 250 ppm solution. From this solution, 100 μL was transferred to the first row of two microtiter plate columns. Both replicates and five additional compounds were all serially diluted 1:1 to a final concentration of 0.8 ppm in TSB.
(§2) Inoculation was accomplished by diluting a 24 hr Ps fl culture, four mls per 36 mls of phosphate buffer solution. A Dynatech autoinoculator was used to transfer 1.5 μl of this cell suspension to the microtiter plates. The plates were incubated at 30° C. for 3 days before the lowest concentration at which no growth occurs was recorded in the database. The SOK data and MIC test data on Ps.fl, Ps.ae, E.c, and S.a. bacteria and Candida albicans (C.alb), A.n and A.p fungi are listed in Table 4.

[8] = system: Pseudomonas fluorescens; assay: Minimum Inhibitory Concentration Test, alternate (Table 4), Ps.fl; assay type: cell-based; conditions: Pseudomonas fluorescens, TSB, 72 hours, 30° C
Method: as §1, §2

Structure (SMILES) | pest or weed control at 200 ppm [1] [%] | pest or weed control at 200 ppm [2] [%] | pest or weed control at 200 ppm [3] [%] | pest or weed control at 200 ppm [4] [%] | pest or weed control at 200 ppm [5] [%] | pest or weed control at 200 ppm [6] [%] | MIC [7] [µg/mL] | MIC [8] [µg/mL] | pest or weed control at 5200 ppm [3] [%] | pest or weed control at 100 ppm [4] [%] | pest or weed control at 100 ppm [1] [%] | pest or weed control at 100 ppm [2] [%] | pest or weed control at 100 ppm [3] [%] | pest or weed control at 100 ppm [5] [%] | pest or weed control at 100 ppm [6] [%]
CCCCCCCCNC(=O)/C=C\SC(C(=O)NCCCC)C(=O)OCC (stereo not drawn) [Example 13, N-n-octyl-cis-3-[2-(ethyl-N-n-butylmalonamido)thio]acrylamide] | 99 | 50 | 0 | 80 | 75 | 50 | – | – | – | – | – | – | – | – | –
CCCCCCCCNC(=O)/C=C\SC(C(=O)NCC(C)C)C(=O)OCC (stereo not drawn) [Example 14, N-n-octyl-cis-3-[2-(ethyl-N-(2-methylpropyl)malonamido)thio]acrylamide] | 95 | 0 | 0 | 50 | 75 | 50 | – | – | – | – | – | – | – | – | –
CCCCCCCCNC(=O)/C=C\SC(C(=O)NCCC)C(=O)OCC (stereo not drawn) [Example 15, N-n-octyl-cis-3-[2-(ethyl-N-n-propylmalonamido)thio]acrylamide] | 100 | 40 | – | 89 | 25 | 62 | 63 (≈ 163 µM) | > 500 | 25 | – | – | – | – | – | –
CCCCCCCCNC(=O)/C=C\SC(C(=O)NC(C)CC)C(=O)OCC (stereo not drawn) [Example 16, N-n-octyl-cis-3-[2-(ethyl-N-(1-methylpropyl)malonamido)thio]acrylamide] | 42 | 40 | 0 | 47 | 0 | 72 | > 500 | > 500 | – | – | – | – | – | – | –
CCCCCCCCNC(=O)/C=C\SC(C(=O)NCCCCCC)C(=O)OCC (stereo not drawn) [Example 17, N-n-octyl-cis-3-[2-(ethyl-N-n-hexylmalonamido)thio]acrylamide] | 100 | 0 | 0 | 90 | 0 | 75 | > 500 | > 500 | – | – | – | – | – | – | –
CCCCCCCCNC(=O)/C=C\SC(C(=O)NCCC)C(=O)NCCC [Example 19, N-n-octyl-cis-3-[2-(N,N'-di-n-propylmalonodiamido)thio]acrylamide] | 95 | 0 | 0 | 89 | 25 | 62 | > 500 | > 500 | – | – | – | – | – | – | –
CCCCCCCCNC(=O)/C=C\SC(C(=O)NCc1ccccc1)C(=O)OCC (stereo not drawn) [Example 20, N-n-octyl-cis-3-[2-(ethyl-N-benzylmalonamido)thio]acrylamide] | 100 | 90 | 0 | 90 | 0 | 75 | > 500 | > 500 | – | – | – | – | – | – | –
CCCCCCCCNC(=O)/C=C\SC(C(=O)Nc1ccccc1Cl)C(=O)OCC (stereo not drawn) [Example 21, N-n-octyl-cis-3-{2-[ethyl-N-(2-chlorophenyl)malonamido]thio}acrylamide] | 97 | 100 | 0 | 97 | 62 | 75 | 8 (≈ 17.6 µM) | > 500 | – | – | – | – | – | – | –
CCCCCCCCNC(=O)/C=C\SC(C(=O)NCc1ccc(Cl)cc1)C(=O)OCC (stereo not drawn) [Example 22, N-n-octyl-cis-3-{2-[ethyl-N-(4-chlorobenzyl)malonamido]thio}acrylamide] | 100 | 90 | 0 | – | 37 | 50 | > 500 | > 500 | – | 99 | – | – | – | – | –
CCCCCCCCNC(=O)/C=C\SC(C(=O)Nc1cccc(OC)c1)C(=O)OCC (stereo not drawn) [Example 23, N-n-octyl-cis-3-{2-[ethyl-N-(3-methoxyphenyl)malonamido]thio}acrylamide] | 92 | 50 | 0 | 100 | 47 | 50 | > 500 | > 500 | – | – | – | – | – | – | –
CCCCCCCCCCCCNC(=O)C(S/C=C\C(=O)NCCCCCCCC)C(=O)OCC (stereo not drawn) [Example 24, N-n-octyl-cis-3-[2-(ethyl-N-n-dodecylmalonamido)thio]acrylamide] | 100 | 0 | 0 | 50 | 0 | 50 | 250 (≈ 488 µM) | > 500 | – | – | – | – | – | – | –
CCCCCCCCNC(=O)/C=C\SC(C(=O)Nc1nccs1)C(=O)OCC (stereo not drawn) [Example 25, N-n-octyl-cis-3-{2-[ethyl-N-(2-thiazoyl)malonamido]thio}acrylamide] | 100 | 0 | 50 | 80 | 0 | 75 | > 500 | > 500 | – | – | – | – | – | – | –
CCCCCCCCCCNC(=O)C(S/C=C\C(=O)NCCCCCCCC)C(=O)OCC (stereo not drawn) [Example 26, N-n-octyl-cis-3-[2-(ethyl-N-n-decylmalonamido)thio]acrylamide] | 100 | 50 | 0 | 80 | 50 | 75 | > 500 | > 500 | – | – | – | – | – | – | –
CCCCCCCCNC(=O)/C=C\SC(C(=O)NCCCCCC#N)C(=O)OCC (stereo not drawn) [Example 27, N-n-octyl-cis-3-{2-[ethyl-N-(5-cyanopentyl)malonamido]thio}acrylamide] | 100 | 98 | 0 | 100 | 0 | – | > 500 | > 500 | – | – | – | – | – | – | –
CCCCCCCCNC(=O)/C=C\SC(C(C)=O)C(=O)Nc1ccccc1 (stereo not drawn) [Example 31, N-n-octyl-cis-3-[2-(N-phenylacetoacetamido)thio]acrylamide] | 100 | 95 | 0 | 95 | 0 | 50 | 250 (≈ 640 µM) | 500 (≈ 1280 µM) | – | – | – | – | – | – | –
CCCCCCCCNC(=O)/C=C\SC(C(=O)NCc1cccc(OC)c1)C(=O)OCC (stereo not drawn) [Example 32, N-n-octyl-cis-3-{2-[ethyl-N-(3-methoxybenzyl)malonamido]thio}acrylamide] | 99 | 95 | 0 | 100 | 0 | 75 | 500 (≈ 1080 µM) | > 500 | – | – | – | – | – | – | –
CCCCCCCCNC(=O)/C=C\SC(C(=O)NCc1ccc(C)cc1)C(=O)OCC (stereo not drawn) [Example 33, N-n-octyl-cis-3-{2-[ethyl-N-(4-methylbenzyl)malonamido]thio}acrylamide] | 99 | 90 | 0 | 95 | 0 | 0 | 250 to 500 (≈ 557 to 1110 µM) | > 500 | – | – | – | – | – | – | –
CCCCCCCCNC(=O)/C=C\SC(C(=O)Nc1ccc(Cl)cc1C#N)C(=O)OCC (stereo not drawn) [Example 43, N-n-octyl-cis-3-{2-[ethyl-N-(2-cyano-4-chlorophenyl)malonamido]thio}acrylamide] | – | – | – | – | – | – | – | – | – | 80 | 100 | 100 | 0 | 50 | 75
CCCCCCCCNC(=O)/C=C\SC(C(=O)Nc1ccccn1)C(=O)OCC (stereo not drawn) [Example 44, N-n-octyl-cis-3-{2-[ethyl-N-(2-pyridyl)malonamido]thio}acrylamide] | – | – | – | – | – | – | 250 (≈ 593 µM) | > 500 | – | 0 | – | 50 | 0 | 0 | 75
CCCCCCCCNC(=O)/C=C\SC(C(=O)Nc1cc(Cl)ccc1OC)C(=O)OCC (stereo not drawn) [Example 46, N-n-octyl-cis-3-{2-[ethyl-N-(2-methoxy-5-chlorophenyl)malonamido]thio}acrylamide] | – | – | – | – | – | – | 250 (≈ 515 µM) | > 500 | – | 0 | – | 80 | 50 | 0 | 50

From US5118681A (priority 1989, dated 1992)
